Test results published in patent US9724351B2, “Compounds for the treatment of paramoxyvirus viral infections” (priority 2012, dated 2017).

Tests used:
[1] = test system: Respiratory Syncytial Virus (RSV) long strain (ATCC#VR-26); test: RSV Antiviral Assay (CPE reduction assay); format: cell-based; settings: human respiratory syncytial virus, 120 h; HEp-2 cells infected with RSV long strain, 5 days, CCK-8 readout; bins (Table 2: less than 1 μM; Table 3: equal to or higher than 1 μM and less than 50 μM); read-out: 50% effective concentration (EC50)
Description: CPE reduction assays are performed as described by Sidwell and Huffman et al., Appl. Microbiol. (1971) 22(5):797-801 with slight modifications. HEp-2 cells (ATCC#, CCL-23) are seeded at a density of 1,500 cells/30 μl/well into the 384-well cell plate(s) (Corning#3701) one day prior to the assay. Compounds are added into 384-well cell plates by Labcyte POD 810 Plate Assembler system. Each of the test compounds is provided to duplicate wells of a 384-well cell plate at final concentrations starting from 100 μM or 1 μM using ⅓ stepwise dilutions for 9 points. Quick-thaw Respiratory Syncytial Virus (RSV) long strain (ATCC#VR-26) stock in a 37° C. water bath. Place on ice until ready to use. Viruses are diluted to the concentration of 100 TCID50/30 μl with medium and 30 μl diluted RSV are added into related wells of 384-well cell plates. For each plate, sixteen wells are set aside as uninfected, untreated cell controls (CC), and nine wells per test plate receive virus only as a control for virus replication (VC). The final DMSO concentration of all wells is 1%. Place the plates at 37° C., 5% CO2 for 5 days.
After 5 days incubation, observe the CPE of cells in all wells. […] Six μl of cell counting kit-8 reagent (CCK-8, Dojindo Molecular Technologies Inc., CK04-20) are added to each well, which allows colorimetric assays to determine the number of viable cells through the dehydrogenase activity detection. After 3-4 hour incubation, the absorbance of each well is measured with a spectrophotometric plate reader at 450 nm wavelength, using a 630 nm filter as background according to manufacturer's instruction. The 50% effective concentration (EC50) is calculated by using regression analysis, based on the mean O.D. at each concentration of compound.

[2] = Cytotoxicity Determination; format: cell-based; settings: human, HEp-2 cells, without addition of virus, CCK-8 readout, bins (Table 4: greater than 100 μM; Table 5: equal to or less than 100 μM and greater than 10 μM), read-out: 50% cytotoxicity concentration (CC50)
Description: In order to determine the compound cytotoxicity, in parallel, each of the compounds is applied to duplicate wells in a 384-well cell plate at serial final concentrations starting from 100 μM using ½ stepwise dilutions for 7 points without addition of virus. Incubate the cells at 37° C., 5% CO2 for 5 days. Add 6 μl CCK-8 into each well and incubate in a CO2 incubator at 37° C. for 3-4 hours. Read the plates to obtain the optical densities which are used to calculate 50% cytotoxicity concentration (CC50).

| SMILES | EC50 [1] [µM] | CC50 at 5 days [2] [µM] |
| --- | --- | --- |
| COc1cc(C(=O)NCC(=O)N/N=C/c2csc3ccccc23)ccc1Cl [Compound 215] | 1 to 50 |  |
| COCC/C(=N\NC(=O)CNC(=O)c1ccc(OC)c(OC)c1)c1csc2c(F)cccc12 [Compound 400-15] | < 1 | > 100 |
| COc1ccc(C(=O)NCC(=O)N/N=C2\CCNc3ccccc32)cc1OC [Compound 447] | 1 to 50 | > 100 |
| CCC/C(=N\NC(=O)CNC(=O)c1ccc(OC)c(OC)c1)c1csc2ccccc12 [Compound 427] | < 1 | > 100 |
| COc1cc(-c2csc3c(F)cccc23)nc(C(=O)CNC(=O)c2ccc(OC)c(OC)c2)n1 [Compound 3401] | 1 to 50 | > 100 |
| COCc1ccc(C(=O)NCC(=O)c2ccc(OC)c(-c3ccc(F)c(Cl)c3)n2)cc1OC [Compound 1323] | < 1 | 10 to 100 |
| CCOc1ccc(C(=O)NCC(=O)N/N=C(\C)c2csc3c(F)cccc23)cc1OC [Compound 461] | < 1 | 10 to 100 |
| COc1ccc(C(=O)NCC(=O)c2ccc(OC)c(-c3ccc4[nH]c(C)nc4c3)n2)cc1OC [Compound 1521] | 1 to 50 | 10 to 100 |
| COc1cc(C(=O)NCC(=O)c2ccc(OC)c(-c3ccc(F)c(Cl)c3)n2)ccc1OC1CC(N)C1 (stereo not shown) [Compound 1359] | < 1 |  |
| CCOc1ccc(C(=O)NCC(=O)N/N=C(\C)c2csc3cnccc23)cc1OC [Compound 466] | 1 to 50 | > 100 |
| COc1cc(C(=O)NCC(=O)c2cccc(-c3csc4c(F)cccc34)n2)ccc1O [Compound 1226] | 1 to 50 | 10 to 100 |
| COc1cc(C(=O)NCC(=O)c2ccc(OC)c(-c3ccc(F)c(C)c3)n2)ccc1OCCO [Compound 1325] | < 1 | > 100 |
| COc1cc(C(=O)NCC(=O)c2ccc(OC)c(-c3c[nH]c4c(F)cccc34)n2)ccc1OCCO [Compound 1342] | < 1 | > 100 |
| COc1cc(C(=O)NCC(=O)c2cc(OC)c(OC)c(-c3csc4c(F)cccc34)n2)ccc1OCCO [Compound 2108] | < 1 | > 100 |
| COc1cc(C(=O)NCC(=O)c2ccc(OC)c(-c3ccc(F)c(Cl)c3)n2)ccc1OCC1(N)CC1 [Compound 1307] | 1 to 50 |  |
| CNC(=O)c1ccc(-c2nc(C(=O)CNC(=O)c3ccc(OC)c(OC)c3)ccc2OC)cc1 [Compound 1504] | 1 to 50 | > 100 |
| C#Cc1cc(C(=O)CNC(=O)c2ccc(OCCO)c(OC)c2)nc(-c2csc3c(F)cccc23)c1 [Compound 4216] | 1 to 50 |  |
| COc1ccc(C(=O)NCC(=O)c2ccc(OC)c(-c3ccccc3-c3ccccc3)n2)cc1OC [Compound 1523] | 1 to 50 |  |
| COc1cc(C(=O)NCC(=O)c2ccc(OC)c(-c3ccc(F)c(Cl)c3)n2)ccc1-c1cccnc1 [Compound 2504] | 1 to 50 |  |
| COc1ccc(C(=O)NCC(=O)c2ccc(OC)c(-c3cncc4ccccc34)n2)cc1OC [Compound 1512] | 1 to 50 |  |
| CCN(CC)c1ccc(C(=O)NCC(=O)N/N=C(\C)c2csc3ccccc23)cc1N(CC)CC [Compound 506] | 1 to 50 |  |
| COc1cc(C(=O)NCC(=O)c2ccc(OC)c(-c3ccc(F)c(Cl)c3)n2)ccc1-c1ccncc1 [Compound 2507] | 1 to 50 |  |
| CCOc1ccc(C(=O)NCC(=O)NCC(=O)c2csc3c(F)cccc23)cc1OC [Compound 910] |  | 10 to 100 |
| COc1ccc(C(=O)NCC(=O)c2ncc(-c3csc4c(F)cccc34)n2C)cc1OC [Compound 2204] |  | 10 to 100 |
| COc1ccc(C(=O)NCC(=O)Nc2nccc3ccccc23)cc1OC [Compound 906] |  | > 100 |
| COc1ccc(C(=O)NCC(=O)N/N=C(\C)c2c(C)[nH]c3ccccc23)cc1OC [Compound 416] |  | 10 to 100 |
| COc1cc(C(=O)NCC(=O)c2ccc(OC)c(-c3ccc(F)c(Cl)c3)n2)ccc1OCCO [Compound 1310] | < 1 |  |
